Results published in patent US20230055705A1, “SUBSTITUTED THIOPHENE CARBOXAMIDES AND DERIVATIVES THEREOF” (Bayer Aktiengesellschaft, priority 2019, published 2023).

system: Pseudomonas syringae pv. tomato; assay: Pseudomonas syringae pv. tomato in vitro cell test; format: cell-based; conditions: 20 ppm of active ingredient, 24 h incubation, read-out: efficacy (inhibition of bacteria growth)
Protocol: Culture medium: LB broth medium (Luria Broth Miller) Sigma
Inoculum: bacteria suspension
Compounds were solubilized in DMSO and the solution used to prepare the required range of concentrations. The final concentration of DMSO used in the assay was 1%.
(§1) Inoculum was prepared from a pre-culture of bacteria grown in liquid medium and diluted to the desired optical density (OD).
(§2) Compounds were evaluated for their ability to inhibit bacteria growth in liquid culture assay. The compounds were added in the desired concentrations to culture medium containing the bacteria suspension. After 24 h of incubation, the efficacy of compounds was determined by spectrometric measurement of bacteria growth. Inhibition was determined by comparing the absorbance values in wells containing the compounds with the absorbance in control wells without active ingredients.

Row | SMILES | inhibition at 20 ppm
1 | CCOC(=O)C(CSC(C)=O)NC(=O)c1sc(Cl)c(Cl)c1Cl (stereo not shown) [I.145] | ≤ 30%
2 | CC(C)[C@H](NC(=O)c1sc(Cl)c(Cl)c1Cl)C(N)=O [I.147] | ≤ 30%

system: Peronospora parasitica; assay: In vivo preventive test on Peronospora parasitica (Crucifer downy mildew); conditions: Hyaloperonospora parasitica, in Brassica oleracea, 120 h, 31 ppm of active ingredient, cabbage, evaluated 5 days after inoculation, read-out: efficacy
Protocol: (§3) The tested active ingredients were prepared by homogenization in a mixture of acetone/Dimethyl sulfoxide/Tween®, and then diluted with water to obtain the desired active material concentration. The young plants of cabbage were treated by spraying the active ingredient prepared as described above. Control plants were treated only with an aqueous solution of acetone/Dimethyl sulfoxide/Tween®.
After 72 hours, the plants were contaminated by spraying the leaves with an aqueous suspension of Peronospora parasitica spores. The contaminated cabbage plants were incubated for 5 days at 20° C. and at 100% relative humidity.
The test was evaluated 5 days after the inoculation. 0% means an efficacy which corresponds to that of the control plants while an efficacy of 100% means that no disease was observed.
Compounds CMP2 and CMP3 were tested in an in vivo preventive test on Peronospora parasitica (Crucifer downy mildew) in the same conditions as described in Example G.

Row | SMILES | pest or weed control at 31 ppm
3 | CCOC(=O)C(CSC(C)=O)NC(=O)c1sc(Cl)c(Cl)c1Cl (stereo not shown) [I.145] | 90 to 100%

same assay, conditions: Hyaloperonospora parasitica, in Brassica oleracea, 120 h, 125 ppm of active ingredient, cabbage, evaluated 5 days after inoculation, read-out: efficacy

Row | SMILES | pest or weed control at 125 ppm
4 | CCOC(=O)C(CSC(C)=O)NC(=O)c1sc(Cl)c(Cl)c1Cl (stereo not shown) [I.145] | 90 to 100%
5 | CC(C)[C@H](NC(=O)c1sc(Cl)c(Cl)c1Cl)C(N)=O [I.147] | 90 to 100%

same assay, conditions: Hyaloperonospora parasitica, in Brassica oleracea, 120 h, 500 ppm of active ingredient, cabbage, evaluated 5 days after inoculation, read-out: efficacy

Row | SMILES | pest or weed control at 500 ppm
6 | CC(C)[C@H](NC(=O)c1sc(Cl)c(Cl)c1Cl)C(N)=O [I.147] | 90 to 100%

system: salicylate responsive promoter sequence of the PR1 (pathogenesis-related protein I) gene (AT2G14610); assay: Induction of defense gene expression in Arabidopsis thaliana (PR1 promoter-GFP reporter plants); format: in vivo; conditions: Arabidopsis thaliana, 72 h; 75 ppm of compound; 3rd day after spraying; mock treated leaves set as 1.00; read-out: relative fluorescence value
Protocol: Arabidopsis thaliana reporter plants containing the coding sequence of a green fluorescent protein (GFP) linked to the salicylate responsive promoter sequence of the PR1 (pathogenesis-related protein I) gene (AT2G14610) were grown for five days and then sprayed with compounds. On the 3rd day after spraying, plant fluorescence was assessed with a MacroFluo instrument from Leica Microsystems (Wetzlar, Germany). Fluorescences were quantified with the Meta-Morph Microscopy Automation & Image Analysis Software (Molecular Devices, Sunnyvale, Calif., United States). Background fluorescence in mock treated leaves was set as 1.00.

Row | SMILES | fold induction at 75 ppm
7 | CCOC(=O)C(CSC(C)=O)NC(=O)c1sc(Cl)c(Cl)c1Cl (stereo not shown) [I.145] | > 2

same assay, conditions: Arabidopsis thaliana, 72 h; 300 ppm; 3rd day after spraying; mock treated leaves set as 1.00; read-out: relative fluorescence value

Row | SMILES | fold induction at 300 ppm
8 | CCOC(=O)C(CSC(C)=O)NC(=O)c1sc(Cl)c(Cl)c1Cl (stereo not shown) [I.145] | > 2

system: Alternaria alternata; assay: Alternaria alternata in vitro cell test; format: cell-based; conditions: 120 h, 20 ppm of active ingredient, 5 days incubation, read-out: efficacy (inhibition of fungal growth)
Protocol: (§4) • Solvent: DMSO • Culture medium: 14.6 g anhydrous D-glucose (VWR), 7.1 g Mycological Peptone (Oxoid), 1.4 g granulated Yeast Extract (Merck), QSP 1 liter • Inoculum: spores suspension
(§5) Fungicides were solubilized in DMSO and the solution used to prepare the required range of concentrations. The final concentration of DMSO used in the assay was ≤[…]1%.
A spore suspension of A. alternata was prepared and diluted to the desired spore density.
(§6) Fungicides were evaluated for their ability to inhibit spore germination and mycelium growth in liquid culture assay. The compounds were added in the desired concentration to the culture medium with spores. After 5 days incubation, fungi-toxicity of compounds was determined by spectrometric measurement of mycelium growth. Inhibition of fungal growth was determined by comparing the absorbance values in wells containing the fungicides with the absorbance in control wells without fungicides.

Row | SMILES | inhibition at 20 ppm
9 | CCOC(=O)C(CSC(C)=O)NC(=O)c1sc(Cl)c(Cl)c1Cl (stereo not shown) [I.145] | ≤ 30%
10 | CC(C)[C@H](NC(=O)c1sc(Cl)c(Cl)c1Cl)C(N)=O [I.147] | ≤ 30%

system: Pseudomonas syringae pv. tomato; assay: In vivo preventive test on Pseudomonas syringae pv. tomato (bacterial speck on tomato); conditions: 31 ppm of active ingredient, evaluated 5 or 6 days after inoculation, read-out: efficacy
Protocol: as §3, with “tomato” for “cabbage”
After 72 hours, the plants were contaminated by spraying the leaves with an aqueous bacteria suspension of Pseudomonas syringae pv. tomato. The contaminated tomato plants were incubated for 4 days in saturated atmosphere at 22° C. day/20° C. night—70% HR and then for 1 or 2 days at 22° C. day/20° C. night at 70-80% relative humidity.
The test was evaluated 5 or 6 days after the inoculation. 0% means an efficacy which corresponds to that of the control plants while an efficacy of 100% means that no disease was observed.
Compounds CMP1 and CMP4 were tested in an in vivo preventive test on Pseudomonas syringae pv. tomato (bacterial speck on tomato) in the same conditions as described in Example J.

Row | SMILES | pest or weed control at 31 ppm
11 | CCOC(=O)C(CSC(C)=O)NC(=O)c1sc(Cl)c(Cl)c1Cl (stereo not shown) [I.145] | 80 to 89%

system: Xanthomonas campestris pv. campestris; assay: Xanthomonas campestris pv. campestris in vitro cell test; format: cell-based; conditions: 20 ppm of active ingredient, 24 h incubation, read-out: efficacy (inhibition of bacteria growth)
Protocol: • Solvent: DMSO • Culture medium: LB broth medium (Luria Broth Miller) Sigma • Inoculum: bacteria suspension
Compounds were solubilized in DMSO and the solution used to prepare the required range of concentrations. The final concentration of DMSO used in the assay was ≤1%.
as §1, §2

Row | SMILES | inhibition at 20 ppm
12 | CCOC(=O)C(CSC(C)=O)NC(=O)c1sc(Cl)c(Cl)c1Cl (stereo not shown) [I.145] | ≤ 30%
13 | CC(C)[C@H](NC(=O)c1sc(Cl)c(Cl)c1Cl)C(N)=O [I.147] | ≤ 30%

system: Xanthomonas campestris pv. campestris; assay: In vivo preventive test on Xanthomonas campestris pv. campestris (black rot on cabbage); conditions: 31 ppm of active ingredient, evaluated 8 or 10 days after inoculation, read-out: efficacy
Protocol: The tested active ingredients were prepared by homogenization in a mixture of acetone/Dimethyl sulfoxide/Tween®, and then diluted with water to obtain the desired active material concentration.
The young plants of cabbage were treated by spraying the active ingredient prepared as described above. Control plants were treated only with an aqueous solution of acetone/Dimethyl sulfoxide/Tween®.
After 72 hours, the plants were contaminated by spraying the leaves with an aqueous bacteria suspension of Xanthomonas campestris pv. campestris. The contaminated cabbage plants were incubated for 8 or 10 days at 27° C. at 95% relative humidity.
The test was evaluated 8 or 10 days after the inoculation. 0% means an efficacy which corresponds to that of the control plants while an efficacy of 100% means that no disease was observed. […]
Compounds CMP1, CMP2, CMP3 and CMP4 were tested in an in vivo preventive test on Xanthomonas campestris pv. campestris (black rot on cabbage) in the same conditions as described in Example H.

Row | SMILES | pest or weed control at 31 ppm
14 | CCOC(=O)C(CSC(C)=O)NC(=O)c1sc(Cl)c(Cl)c1Cl (stereo not shown) [I.145] | 90 to 100%

same assay, conditions: 125 ppm of active ingredient, evaluated 8 or 10 days after inoculation, read-out: efficacy

Row | SMILES | pest or weed control at 125 ppm
15 | CCOC(=O)C(CSC(C)=O)NC(=O)c1sc(Cl)c(Cl)c1Cl (stereo not shown) [I.145] | 90 to 100%

system: Colletotrichum lindemuthianum; assay: Colletotrichum lindemuthianum in vitro cell test; format: cell-based; conditions: 144 h, 20 ppm of active ingredient, 6 days incubation, read-out: efficacy (inhibition of fungal growth)
Protocol: as §4, §5
A spore suspension of C. lindemuthianum was prepared and diluted to the desired spore density.
as §6, with “inhibit spores” for “inhibit spore”, “After 6” for “After 5”

Row | SMILES | inhibition at 20 ppm
16 | CC(C)[C@H](NC(=O)c1sc(Cl)c(Cl)c1Cl)C(N)=O [I.147] | ≤ 30%

system: Uromyces appendiculatus; assay: In vivo preventive test on Uromyces appendiculatus (bean rust); conditions: 240 h, 8 ppm, evaluated 10 days after inoculation, read-out: efficacy
Protocol: as §3, with “bean” for “cabbage”
After 72 hours, the plants were contaminated by spraying the leaves with an aqueous suspension of Uromyces appendiculatus spores. The contaminated bean plants were incubated for 24 hours at 20° C. and at 100% relative humidity and then for 9 days at 20° C. and at 70-80% relative humidity. The test was evaluated 10 days after the inoculation. 0% means an efficacy which corresponds to that of the control plants while an efficacy of 100% means that no disease was observed.
Compounds CMP5 and CMP6 were tested in an in vivo preventive test on Uromyces appendiculatus (bean rust) in the same conditions as described in Example I.

Row | SMILES | pest or weed control at 8 ppm
17 | CC(C)[C@H](NC(=O)c1sc(Cl)c(Cl)c1Cl)C(N)=O [I.147] | ≥ 90%

same assay, conditions: 240 h, 125 ppm of active ingredient, evaluated 10 days after inoculation, read-out: efficacy

Row | SMILES | pest or weed control at 125 ppm
18 | CCOC(=O)C(CSC(C)=O)NC(=O)c1sc(Cl)c(Cl)c1Cl (stereo not shown) [I.145] | 90 to 100%
19 | CC(C)[C@H](NC(=O)c1sc(Cl)c(Cl)c1Cl)C(N)=O [I.147] | 90 to 100%

same assay, conditions: 240 h, 500 ppm of active ingredient, evaluated 10 days after inoculation, read-out: efficacy

Row | SMILES | pest or weed control at 500 ppm
20 | CC(C)[C@H](NC(=O)c1sc(Cl)c(Cl)c1Cl)C(N)=O [I.147] | 90 to 100%

system: not listed separately; assay: LogP by HPLC on reversed phase columns (EEC directive 79/831 Annex V.A8); format: physicochemical; conditions: reversed phase HPLC columns, method [a]: LC-UV, acidic range, 0.1% formic acid in water and acetonitrile as eluent (linear gradient 10% to 95% acetonitrile)
Method in brief: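 LogP derived from retention time by linear interpolation against a C3–C16 alkan-2-one calibration series of known LogP. Measured by HPLC on reversed-phase columns following EEC 79/831 Annex V.A8. UV spectra over 200–400 nm at signal peaks gave lambda-max.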

Row | SMILES | chromatographic logP
21 | CCOC(=O)C(CSC(C)=O)NC(=O)c1sc(Cl)c(Cl)c1Cl (stereo not shown) [I.145] | 3.41
22 | CC(C)[C@H](NC(=O)c1sc(Cl)c(Cl)c1Cl)C(N)=O [I.147] | 2.67
